Patent publication US20170190671A1, “BIS(ARYL)CATECHOL DERIVATIVES AS HERBICIDES” (E I DU PONT DE NEMOURS AND COMPANY, priority 2014, published 2017)

System: velvetleaf (Abutilon theophrasti)
Experiment: Test A postemergence
Assay type: in vivo
Conditions: 0 to 100 scale
Outline: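 Compounds in non-phytotoxic solvent with surfactant applied as soil spray preemergence, or postemergence to plants 2-10 cm at one- to two-leaf stage, in loam/sand. After approximately 10 days in greenhouse, injury rated visually versus untreated controls, 0 (no effect) to 100 (complete control).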

In the case of `Clc1cnc(Oc2cccc(Br)c2Oc2ncc(Cl)cn2)nc1` [Compound 19, 2,2′-[[3-bromo-1,2-phenylene]bis(oxy)]bis[5-chloropyrimidine]], the “Plant response rating, Velvetleaf” value (125 g ai/ha) is reported as 100 and the “Plant response rating, Velvetleaf” value (500 g ai/ha) is reported as 100.
`Fc1cccc(Oc2ncc(Cl)cn2)c1Oc1ncc(Cl)cn1` [Compound 21, 2,2′-[[3-fluoro-1,2-phenylene]bis(oxy)]bis[5-chloropyrimidine]] was tested, and the “Plant response rating, Velvetleaf” value (125 g ai/ha) was 90 and the “Plant response rating, Velvetleaf” value (500 g ai/ha) was 100.
